Data published in patent publication US20250332096A1, “BEVERAGE FORMULATION AND METHOD OF PROMOTING CELLULAR HYDRATION BY ENHANCING INTRACELLULAR PERMEATION” (Eastpond Laboratories Limited, priority 2024, published 2025).

Legend:
[1] = pH of test solutions; assay type: physicochemical; conditions: purified water
Method: (§1) 1:1 mol/mol stoichiometry complexes were prepared for the experiment. Nicotinic acid/alpha-CD complex was prepared by dissolving 11.22 g nicotinic acid and 98.63 g alpha-CD (89.66 g on dry basis) in 700 ml purified water. Nicotinamide/alpha-CD complex was prepared by dissolving 5.57 g nicotinamide and 49.3 g alpha-CD (44.4 g on dry basis) in 350 ml purified water and L-arginine/alpha-CD complex was prepared by dissolving 15.18 g L-arginine and 94.26 g alpha-CD (85.69 g on dry basis) in 700 ml purified water. Further, for all the three complexes, the liquid was frozen in dry ice bath and lyophilized. The dry lyophilizate was ground and sieved.
(§2) Clarity, pH, conductivity, density, viscosity, turbidity, surface tension and osmolality were determined in solutions prepared with purified water. […]

[2] = Viscosity of test solutions; assay type: physicochemical; conditions: purified water
Method: as §1
Clarity, pH, conductivity, density, viscosity, turbidity, surface tension and osmolality were determined in solutions prepared with purified water.

[3] = Turbidity of test solutions; assay type: physicochemical; conditions: purified water (reference), 0.05%
Method: as §1, §2

[4] = Visual inspection (clarity) of test solutions; assay type: physicochemical; conditions: purified water
Method: as §1, §2

[5] = Surface tension of test solutions; assay type: physicochemical; conditions: purified water
Method: as §1, §2

[6] = Osmolality of test solutions; assay type: physicochemical; conditions: purified water
Method: as §1, §2

[7] = system: C. elegans; assay: C. elegans longevity in hydration modified water (Example 5); assay type: in vivo; conditions: for Animals alive, % of initial: 0.1% w/w in nutritive media, USA I water
Method: C. elegans nematodes were grown in petri-type dishes containing normal nutrient liquid media prepared alternatively with USA I water (described in Example 2) lacking any further additive component (control) or the same water supplemented with a parent α-, β-, or γ-cyclodextrin, and/or a bioactive agent, as an active component of cellular hydration. Fifty ±3 worms were transferred to each dish. Each condition was repeated in triplicate. Experiments were repeated for USA II and BP I waters described in Example 2.
• A. Addition of parent α-, β- and γ-cyclodextrins. • B. Addition of L-arginine and nicotinamide. • C. Addition of inclusion complexes of cyclodextrins with L-arginine and nicotinamide.

[8] = system: C. elegans; assay: C. elegans lifespan Test B (Example 6); assay type: in vivo
Method: C. elegans study performed for the present disclosure is a follow-up and repetition of the observations carried out earlier (referred as Test A here). The results of the current C. elegans study (Test B) were recorded with higher number of animals compared to the Test A (50 worms per treated groups versus 130 worms per groups). Nematodes were maintained and propagated on Nematode Growth Medium—(NGM) containing plates and fed with Escherichia coli OP50 bacteria. The C. elegans strain used in this study is Bristol (N2) as wild-type. FIG. 21, illustrates the lifespan of control and alpha-cyclodextrin-treated worms. The control C. elegans lived on a medium made with tap water. The treated worms were maintained on culture media made with 0.1% alpha-cyclodextrin, 0.1% alpha-CD/nicotinic acid and 0.1% alpha-CD/arginine complex containing tap water.

[9] = molecular target: T1, human aquaporin 1 (AQP1) (Homo sapiens, UniProt P29972); assay: Xenopus oocyte swelling assay, osmotic water permeability; assay type: cell-based; conditions: 0.05% in water
T1 construct: host or cells: Xenopus laevis oocytes (mRNA injection)
T1 sequence (P29972 1-269): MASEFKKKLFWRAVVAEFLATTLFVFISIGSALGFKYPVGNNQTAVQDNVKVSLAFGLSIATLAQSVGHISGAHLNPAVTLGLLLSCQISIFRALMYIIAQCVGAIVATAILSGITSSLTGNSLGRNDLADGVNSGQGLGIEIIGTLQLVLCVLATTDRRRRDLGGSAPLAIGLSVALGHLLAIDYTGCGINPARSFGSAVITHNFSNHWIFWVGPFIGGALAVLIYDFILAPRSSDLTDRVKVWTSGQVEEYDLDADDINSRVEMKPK
Method: They were then kept on ice for another 15 min before ovarectomy was performed. Ovaries were incubated in collagenase (Worthington Type II, 10 mg/ml) in calcium free Barth's solution (CFBS, NaCl 88 mM, KCl 1 mM, MgSO4 0.8 mM, TRIS-HCl 5 mM, NaHCO3 2.4 mM). Following defolliculation, oocytes were rinsed in normal Barth's solution (MBS, NaCl 88 mM, KCl 1 mM, CaCl2 0.4 mM, Ca(NO3)2 0.33 mM, MgSO4 0.8 mM, TRIS-HCl 5 mM, NaHCO3 2.4 mM) before they were transferred to 96-well plates. For nuclear injection of the different DNA's into the oocytes and for cytoplasmic injection of the mRNA encoding human Aquaporin-1 channels into the oocytes, the Roboocyte automated injection and recording system was used. (Human Aquaporine 1 cDNA cloned in expressing vector pGEM-T were purchased from Sino Biological Inc. Transcription to AQP1 mRNA was performed by an Ecocyte cooperation partner lab.) The mRNA injection volume was in the range 20-50 nl at a mRNA concentration of 100 ng/μl. After two to three days of incubation in Barth's solution supplemented with Gentamycin, water uptake of the Xenopus Oocytes through AQP1 channels was tested in a swelling assay using video microscopy. […] Normal frog ringer (NFR, NaCl 90 mM, KCl 2 mM, CaCl2 2 mM, MgCl2 1 mM, HEPES 5 mM, osmolarity 200 mOsm/1) was used as control solution and was prepared freshly on the day of the experiments. […]

OC[C@H]1O[C@@H]2O[C@H]3[C@H](O)[C@@H](O)[C@@H](O[C@H]4[C@H](O)[C@@H](O)[C@@H](O[C@H]5[C@H](O)[C@@H](O)[C@@H](O[C@H]6[C@H](O)[C@@H](O)[C@@H](O[C@H]7[C@H](O)[C@@H](O)[C@@H](O[C@H]1[C@H](O)[C@H]2O)O[C@@H]7CO)O[C@@H]6CO)O[C@@H]5CO)O[C@@H]4CO)O[C@@H]3CO [Alpha Cyclodextrin, α-cyclodextrin]
pH ([1]; 0.05%): 6.20 | pH ([1]; 0.10%): 6.36 | pH ([1]; 1.00%): 6.55 | pH ([1]; 2.00%): 6.70 | Viscosity (25 C.) ([2]; 0.05%): 0.91 cP | Viscosity (25 C.) ([2]; 0.10%): 0.92 cP | Viscosity (25 C.) ([2]; 1.00%): 0.97 cP | Viscosity (25 C.) ([2]; 2.00%): 1.06 cP | Turbidity (Abs, λ = 410 nm) [3]: 0.003 Abs | Visual Inspection ([4]; 0.05%): clear | Visual Inspection ([4]; 0.10%): clear | Visual Inspection ([4]; 1.00%): clear | Visual Inspection ([4]; 2.00%): clear | Surface Tension ([5]; 0.05%): 72 mN · m^−1 | Surface Tension ([5]; 0.10%): 72 mN · m^−1 | Surface Tension ([5]; 1.00%): 72 mN · m^−1 | Surface Tension ([5]; 2.00%): 73 mN · m^−1 | Osmolality ([6]; 0.05%): 0 mOsm/kg | Osmolality ([6]; 0.10%): 2 mOsm/kg | Osmolality ([6]; 2.00%): 18 mOsm/kg | number of animals surviving to old ages ([7]; after day 15, 0.1% w/w): significantly increased | Animals alive, % of initial ([7]; life span 10 days): 100 % of initial | Animals alive, % of initial ([7]; life span 15 days): 20 % of initial | Animals alive, % of initial ([7]; life span 18 days): 2 % of initial | Fraction of worms alive ([8]; Test B, day 15, 0.1%, 130 worms per group, tap water media): 20% | effect on lifespan ([8]; all three studied concentrations (0.05, 0.1, 0.5%)): significant | average lifespan ([8]; control animals 12.33 days): 13.25 days | water permeation of human-aquaporin-expressed oocytes [9]: highest water permeation
